Like-named read-outs stand apart in the source and are kept apart here.
Legend:
[1] = tested on: endogenous GABAAR; assay: all-optical assay of GABAAR positive allosteric modulation in primary neuronal culture; format: cell-based, rat
Description: (§1) Cultured neuronal assays: Preparation of hippocampal cultures: Mixed glial and neuronal cultures were prepared from the hippocampus of postnatal day 0 to 1 Sprague-Dawley rat pups. Separate pools of dissociated cells were transfected via electroporation (LONZA, V4SP-3096) with plasmid constructs, and depending on assay directives, either plated individually or mixed with a different pool of electroporated cells after a 10 min recovery period. Cells were cultured on coverslips (Deckglaser) pre-treated with high molecular weight poly-D-lysine (Sigma, P7405; 0.05 mg/mL) in 24-well plates and maintained in NbActiv4 (BrainBits, Nb4-500) at 37 C, 5% CO2. Media was changed by half at DIV3 or 4 and then weekly thereafter; experiments were performed between DIV16 to DIV18.
Diazepam/Flumazenil: Dissociated neurons were electroporated with constructs and cultured for 2 weeks. The assay was performed in a modified GABAR-BASE, with an increased KCl concentration to enhance neuronal excitability and a lowered GABA level for a baseline. Again, a DRUG plate and three DoseGroups were used as described above for dosing, but no final WASH. […] Imaging alignment, proof-reading and analysis were performed in a similar fashion to the GABAR assay using MatLab.
Next it was sought to extend DART to allosteric modulators. The allosteric binding site of the GABAAR, known to bind several drugs, with effects ranging from negative to positive allosteric modulation was first analyzed. Diazepam represents the prototypic PAM at this site, and is the most clinically significant of the class. Thus, a diazepam analog was synthesized with a short alkyne attached to the amide of the diazepam core; an attachment site known to tolerate substituents and thought from structural inspection of the GABAAR-bound diazepam pose to allow linker access to free solution. Click chemistry was used to assemble the full-length diazepam.1DART.2 and leveraged an all-optical assay of endogenous GABAARs in primary neuronal culture, with ChR2 and GCaMP6s in the same cell.

[2] = tested on: GABAAR; assay: whole-mount retina, GABAAR-mediated evoked IPSC in retinal ganglion cells; format: cell-based, mouse; conditions: 300 nM, 15 min
Description: (FIG. 6A) Viral strategy (top panel). […] Experimental overview (second panel from the top to bottom panel). Top: whole retina; synaptic current is evoked (stim) and recorded (voltage-clamp of dTomato+ RGC), with ionic and pharmaceutical conditions chosen to isolate the AMPAR or GABAAR. A 10 min baseline is followed by 15 min application of 300 nM Rx^DART.2+30 nM Alexa^647.1DART.2. […] (FIG. 6B) CMPDA.2^DART.2 (left). Electropositive spacer (PDB 3RNN). […] AMPAR structural model (middle) (composite of PDB 5WEO, 3RNN, and 1FTL). Cylinder depicts cell membrane. […] YM90K.1^DART.2 (right). Structural model (PDB 1FTL). […] (FIG. 6C) diazepam.1^DART.2 (left). Structural model (PDB 6HUP). […] GABAAR (middle) structural model (composite of PDB 6HUP and 6HUK). […] Structural model (PDB 6HUK).
Preparation of Retina: Mice were intravitreal injected AAV10 HaloTag™-dTomato to eyes. After 8-12 weeks, the mice killed by cervical dislocation. Both eyes were removed and dissected under a stereo-microscope. Retinas were isolated from the eyecups and placed in oxygenated (95% O2/5% CO2) cold-Ames medium (Sigma-Aldrich), supplemented with 21 mM NaHCO3. After the vitreous body was removed, a retina was cut into 3 pieces, leaving each retina piece attached to a filter paper with 2 mm hole by retina ganglion-cell-side-down. The pieces of retina were stored in bubbled Ames solution at room temperature, then transferred to recording chamber with retina ganglion-cell-side-up for recording.
Whole-cell patch-clamp recording: The brain slices or retinas were perfused with bubbled aCSF at 29-30° C. with a 2 ml/min flow rate. Recordings were made by whole cell patch recording techniques using a Multiclamp 700B amplifier (Molecular Devices, Axon Instruments Inc., Union City, CA). The signals were filtered at 10 KHz and acquired using Digitate 1440A and pClamp 10.7 (Molecular Devices). The recording pipettes (4 MΩ-6 MΩ) were filled with internal solutions. For GABAA receptor-mediated evoked inhibitory postsynaptic currents ([…]) recording, the pipettes filled with Cesium Chloride-based internal solution (in mM) 135 CsCl, 2 MgCl2, 0.5 EGTA, 10 HEPES, 4 Mg-ATP, 0.5 Na-GTP, 10 Na2-phosphocreatine, and QX314 (lidocaine N-ethyl bromide), pH adjusted to 7.3 with CsOH (290 mosm). For AMPA-receptor mediated evoked excitatory postsynaptic currents (eEPSCs) recording, the pipette solution contained (in mM) 130 CsMeS, 1 MgCl2, 0.5 EGTA, 10 HEPES, 4 Mg-ATP, 0.5 Na-GTP, 10 Na2-phosphocreatine, and 4 QX314, pH adjusted to 7.3 with CsOH (290 mosm). For experiment of brain slices and retinas, the eIPSCs or eEPSCs were elicited by electrical stimuli at 0.067 Hz in 0.3-ms duration and 150-300-ρA (60-70% maximum responses) stimulation intensity at a holding potential of −70 mV. The stimulating electrode was placed within 60-100 μm from the recording neuron under voltage-clamp mode. GABA-receptor mediated eIPSCs were isolated in the presence of DNQX ([…] AMPAR antagonist) and AP-V ([…] antagonist) in the bath solution. For AMPA-receptor mediated eEPSCs, added picrotoxin ([…], GABAAR antagonist) and AP-V ([…]) to the bath solution.

[3] = target: T1, HaloTag Protein (HTP) on +HTP neurons (Rhodococcus rhodochrous, UniProt P0A3G2, A155T/A167V/A172T/A224E/C128F/C176G/D78G/E160K/E257K/H272N/K175M/K195N/L47V/L88M/N227D/S58T/T264A/Y273L/Y87F); assay: biotin-HTL capture dose-response on +HTP cultured neurons; format: cell-based, rat; conditions: EC 50 (nM), concentration for half-maximal capture on +HTP neurons following 15 minutes of incubation
T1 construct: SSnlg signal peptide (residues 1-49 of mouse neuroligin-1) (N); ERXL (Kir2.1 trafficking and ER export signals); expressed in transfected cells; host or cells: primary rat hippocampal neurons, electroporated with plasmid
T1 sequence (P0A3G2 other isoform, or with tags, fused parts or gaps with the stated changes): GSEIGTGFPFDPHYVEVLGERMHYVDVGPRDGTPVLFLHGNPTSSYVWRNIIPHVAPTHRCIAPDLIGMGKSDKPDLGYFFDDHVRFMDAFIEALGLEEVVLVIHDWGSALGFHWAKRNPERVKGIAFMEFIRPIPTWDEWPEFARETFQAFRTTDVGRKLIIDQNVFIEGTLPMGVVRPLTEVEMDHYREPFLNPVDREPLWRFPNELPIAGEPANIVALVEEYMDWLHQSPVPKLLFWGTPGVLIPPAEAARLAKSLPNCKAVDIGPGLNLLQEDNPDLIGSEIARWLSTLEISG
Description: as §1
For any given neuronal assay, coverslips were first washed briefly in a resting BASE solution containing (in mM): 4 KCl, 2 CaCl2), 2 MgCl2, 150 NaCl, 10 HEPES, 10 glucose, pH 7.4, before transfer to a glass-bottom, 24-well imaging plate (Cellvis, P24-1.5H—N). Live cell imaging was performed on an Olympus IX83 inverted fluorescent microscope (10× objective, […].) with LED illumination for GFP (Excitation=485 nm), TR (Ex=560 nm), Cy5/Alexa647 (Ex=640 nm) and Cy7/AlexaFluor750 (Cy7=740 nm) depending on the specific assay directives.
biotin-HTL: Dissociated neurons were electroporated with either the +HTP or ddHTP construct and cultured as described above. A dilution series for both the biotin-PEG12-HTL.1 and biotin-PEG12-HTL.2 compounds was made in BASE solution containing 1% BSA (Sigma A7904), representing 12 final concentrations (in uM) between 10 and 0.001. After a brief rinse in BASE+BSA to acclimate the live neurons to room temperature and avoid temperature effects to the binding kinetics, a single coverslip was incubated in one of the twelve dilutions for 15 min, washed twice in BASE+BSA, then incubated in a 1:500 dilution of Streptavidin-AlexaFluor488 (Invitrogen) for 15 min. The neurons were rinsed four times then transferred to a glass-bottom imaging plate containing BASE+BSA. Each coverslip was imaged in its entirety by combining several 10× images (TR at 10 ms; GFP at 100 ms) together using the Olympus CellSens software stitching algorithm. A dose-response curve was created from the individual coverslips using MatLab.
To enable direct quantification of capture efficiency, commercially available HTL (i.e., HTL.1) were conjugated to biotin via a flexible polyethylene glycol linker of moderate length (PEG12), to mimic the longer (PEG36) linker typically used in an RxDART. Capture kinetics were characterized on cultured neurons expressing HTP on their surface [HTPNLG(432-648), as in, to model the cellular microenvironment of interest. Dose-response curves were performed by incubating neuronal coverslips with a given ligand for 15 min, followed by washing, fluorescent labeling of biotin, and quantification of capture. […] Thus, it was reasoned that improving HTL50 would widen the DW for any Rx cargo.

[4] = tested on: endogenous GABAARs; assay: all-optical assay of GABAAR antagonism in primary neuronal culture; format: cell-based, rat; conditions: ddHTP vs +HTP cells, 15 min, 15 uM GABA
Description: as §1
Gabazine: Dissociated neurons were electroporated with constructs and cultured for 2 weeks. The assay was performed in the same BASE solution as described above, but with the addition of synaptic blockers CPP (NMDAR antagonist; Tocris) and NBQX (AMPAR antagonist; Abcam, ab120046) to isolate GABAR activity, and a small amount of GABA (GABAR agonist; Sigma) to ensure GABAR activity (=GABAR-BASE). […] Instead, a high dose of regular gabazine was used to completely silence any cells that may not have had realized full antagonism by the end of the assay. Imaging alignment, proof-reading and analysis were performed in a similar fashion to the AMPAR assay using MatLab.
It was next focused on blocking the GABAAR, a ubiquitous transducer of synaptic inhibition. […] The structure-activity literature of gabazine, a selective GABAAR antagonist, was explored. The core gabazine pharmacophore includes of a 3-amino, 6-phenoxy-pyridazine ring, with GABA embedded in the 2-position (2 butyric acid). Based on historical, low-potency predecessors of gabazine, a longer GABA moiety (2 pentanoic acid), and methyl substituents (e.g., 5-CH3) were explored (FIG. 2F). For each variant, the 6-phenoxy moiety was modified to make a gabazinealkyne module, which was click-conjugated to DART.2. Several variants were made, including gabazine.1^DART.2 (2 butyric acid, 5-H), gabazine.5DART.2 (2 pentanoic acid, 5-H), and gabazine.7DART.2 (2 pentanoic acid, 5-CH3). An all-optical assay of endogenous GABAARs in primary neuronal culture was then developed. […] Excitatory synapses were blocked, such that opto-stimulation with ChR2 became the only source of neural excitation.

## CN1C(=O)CN=C(c2ccccc2)c2cc(Cl)ccc21 [diazepam, reference compound]
[1]; traditional (non-DART) version
  effect on +HTP vs ddHTP cells: equally affected

## COc1cc(CCCCl)ccc1CCOCCNC(=O)c1ccc(CNC(=O)CCOCCOCCOCCOCCOCCOCCOCCOCCOCCOCCOCCOCCOCCOCCOCCOCCOCCOCCOCCOCCOCCOCCOCCOCCOCCOCCOCCOCCOCCOCCOCCOCCOCCOCCOCCOCCn2cc(COCCOCCOCCOCCOCCOCCN3C(=O)CN=C(c4ccccc4)c4cc(Cl)ccc43)nn2)cc1 [diazepam.1DART.2, 1-(4-(19-(7-chloro-2-oxo-5-phenyl-2,3-dihydro-1H-benzo[e][1,4]diazepin-1-yl)-2,5,8, 11, 14, 17-hexaoxanonadecyl)-1H-1,2,3-triazol-1-yl)-N-(4-((2-(4-(3-chloropropyl)-2-methoxyphenethoxy)ethyl)carbamoyl)benzyl)-3,6,9,12, 15, 18,21,24,27, 30, 33, 36, 39, 42, 45, 48, 51, 54, 57, 60, 63, 66, 69, 72, 75, 78, 81, 84, 87, 90, 93, 96, 99, 102, 105, 108-hexatriacontaoxaundecahectan-111-amide]
[1]; Rx50/HTL50
  DW (t=15 m): ~750
[1]; read-out: HTL50 (t=15 m), +HTP neurons, 15 min
  EC50: 0.04 µM
[1]; read-out: Rx50, ddHTP neurons, 5 µM GABA
  EC50: 30 µM
[2]
  GABAAR evoked IPSC integral (total charge transfer) boost, +HTP cells: 2 fold
  GABAAR evoked IPSC, ddHTP cells: no effect on ddHTP RGCs
  GABAAR-mediated IPSC potentiation, +HTP RGCs: significantly potentiated IPSCs
[2]; listed as diazepam.1^DART.2
  GABAAR evoked IPSC, ddHTP cells: not ^ddHTP cells

## COc1cc(CCCCl)ccc1C(=O)NCCCNC(=O)c1ccc(CNC(=O)CCOCCOCCOCCOCCOCCOCCOCCOCCOCCOCCOCCOCCNC(=O)CCCC[C@@H]2SC[C@@H]3NC(=O)N[C@@H]32)cc1 [drawing 134]
[3]
  EC50: 280 nM

## COc1cc(CCCCl)ccc1C(=O)NCCCNC(=O)c1ccc(CNC(=O)CCOCCOCCOCCOCCOCCOCCOCCOCCOCCOCCOCCOCCNC(=O)CCCC[C@@H]2SC[C@@H]3NC(=O)N[C@@H]32)cc1 [drawing 135]
[3]
  EC50: 200 nM

## CCOC(=O)c1ncn2c1CN(C)C(=O)c1cc(F)ccc1-2 [flumazenil, reference compound]
[1]
  GABAAR receptor modulation: no receptor modulation

## COc1cc(CCCCl)ccc1CCOCCNC(=O)c1ccc(CNC(=O)CCOCCOCCOCCOCCOCCOCCOCCOCCOCCOCCOCCOCCOCCOCCOCCOCCOCCOCCOCCOCCOCCOCCOCCOCCOCCOCCOCCOCCOCCOCCOCCOCCOCCOCCOCCOCCn2cc(COCCOCCOCCOCCOCCOCCOCCCCCCOc3ccc(-c4ccc(=N)n(CCCCC(=O)O)n4)cc3)nn2)cc1 [gabazine.5^DART.2]
[4]
  DW (t=15 m): 1,500

— patent publication US20250213700A1, “COMPOUNDS, COMPOSITIONS, AND METHODS FOR CELL-SPECIFIC PHARMACOLOGY” (Duke University, priority 2022, published 2025)
